From patent US20190106460A1, “BINDING INHIBITORS OF THE BETA. TRANSDUCIN REPEAT-CONTAINING PROTEIN” (priority 2011, published 2019)
Where two headings read alike, the source gives them in different places. Starred links: 1 amine or outer side, 2 acyl side, 3 side chain; linkers in the order of their positions; H or OH if unused. Non-standard residues stand in square brackets, D forms with d. Residues, ends and D or L forms follow the SMILES beside them. *: point of attachment. Phe(3-F) = N[C@@H](Cc1cccc(F)c1)C(=O)O; 1Nal = N[C@@H](Cc1cccc2ccccc12)C(=O)O; NMeE = CN[C@@H](CCC(=O)O)C(=O)O; X2 = COc1ccc(S(=O)(=O)*)cc1OC; Suc = O=C(CCC(=O)[*:2])[*:1]; Tos = Cc1ccc(S(=O)(=O)*)cc1; Propionyl = CCC(=O)*; Bz = O=C(c1ccccc1)*; Moc = COC(=O)*

How the values were obtained:
FBW7/Skp1 = FBW7/Skp1 (Homo sapiens, UniProt Q969H0); experiment: Selectivity assay vs other E3s: Fbw7; assay type: biochemical; conditions: for inhibition at 100 µM: read-out: % Inhibition Fbw7 @ (100 μM); for inhibition at 10 µM: read-out: % Inhibition Fbw7 @ 10 μM
Description: (§1) βTrCP Ubiquitination Assay and Selectivity Assays
(§2) Master mixes were prepared in a 50 mM Herpes buffer at pH 7.5, in 75 mM NaCl and 1 mM DTT without Mg or ATP and peptides were added to a final concentration of 100 μM. Reactions were incubated at room temperature for 30 minutes and then Mg/ATP was added to the mix. Reactions were further incubated for an additional 60 minutes and then stopped by adding SDS gel loading buffer and boiled for 5 minutes. Reactions were run on SDS-PAGE (10%) and transferred to nitrocellulose membranes and probed with HRP-Streptavidin.
FBW7 selectivity assays were performed in the same manner except using FBW7/Skp1 as E3 component and cyclin E as the substrate. Blots were probed using anti-cyclin E antibody.
(§3) Candidate compounds were tested for inhibition of Fbw7 and Skp2 as described above.

βTrCP [1] = biological target: T1, βTrCP (Homo sapiens, UniProt Q9Y297); experiment: Biotin pull down assay with biotinylated IκB peptide; assay type: binding; conditions: for Biotin Pulldown Assay 10 μM: 10 μM compound; for Biotin Pulldown Assay 100 μM: 100 μM compound
T1 sequence (Q9Y297 1-605): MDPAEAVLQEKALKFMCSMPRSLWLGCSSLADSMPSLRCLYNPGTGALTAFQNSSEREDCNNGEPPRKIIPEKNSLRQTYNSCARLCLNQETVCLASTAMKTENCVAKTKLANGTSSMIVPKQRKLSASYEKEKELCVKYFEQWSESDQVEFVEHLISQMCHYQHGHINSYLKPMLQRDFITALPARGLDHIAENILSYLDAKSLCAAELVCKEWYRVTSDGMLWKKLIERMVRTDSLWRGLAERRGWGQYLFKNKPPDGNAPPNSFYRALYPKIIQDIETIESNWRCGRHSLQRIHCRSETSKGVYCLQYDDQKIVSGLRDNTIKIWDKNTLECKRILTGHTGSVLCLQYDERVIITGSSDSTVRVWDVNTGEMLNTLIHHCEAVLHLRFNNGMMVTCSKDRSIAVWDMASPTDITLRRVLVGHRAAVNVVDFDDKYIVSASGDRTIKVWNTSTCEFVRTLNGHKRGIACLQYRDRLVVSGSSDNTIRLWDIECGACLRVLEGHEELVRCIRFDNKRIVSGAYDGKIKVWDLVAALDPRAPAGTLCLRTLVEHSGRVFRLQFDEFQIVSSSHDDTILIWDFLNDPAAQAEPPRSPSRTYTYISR

β-TrCP1/Skp1 = β-TrCP1/Skp1 (Homo sapiens, UniProt Q9Y297); experiment: βTrCP ubiquitination assay (Ub assay); assay type: biochemical; conditions: for Ub Assay 10 μM: 10 μM compound; for Ub Assay 100 μM: 100 μM compound
Description: as §1
0.5 μM Peptide substrate (biotin)
as §2
Candidate compounds were tested in duplicate at both 10 and 100 μM against the E3 ligase cascades βTrCP(IκBα) and βTrCP(β-catenin). The E3 assays were carried out according to the component concentrations detailed in Table 9. In each case the E2 was HA,6His-UbcH3-(hu,FL), the E1 was 6His-UBE1-(hu,FL) and the ubiquitin (Sigma U6253) was biotinylated at a 5:1 ratio. Substrate phosphorylation was performed in the absence of compound; consequently any observed signal modulation should not reflect inhibition of the up-stream kinase reaction. All other steps (E1, E2 and substrate ubiquitination) were carried out in the presence of compound. The stopped reaction mix (10 μl) was added to an ECL plate loaded with anti c-Myc ( 1/500 Dilution, Millipore 05-724) and blocked with 5% BSA. Binding was allowed to proceed for 1 hour at RT before a wash step (3 40 μl PBST washes). Detection was achieved by binding SA-Ru TAG at 1 μg/ml (1 hour @ RT, 3 40 μl PBST washes) before reading on an MSD Sector Imager 6000.
Assays were performed as described above

Skp2 = Skp2 (Homo sapiens, UniProt Q13309); experiment: Selectivity assay vs other E3s: Skp2; assay type: biochemical; conditions: for inhibition at 100 µM: read-out: % Inhibition Skp2 @ (100 μM); for inhibition at 10 µM: read-out: % Inhibition Skp2 @ 10 μM
Description: as §1, §2, §3

βTrCP [2] = biological target: βTrCP (Homo sapiens, UniProt Q9Y297); experiment: Fluorescence polarisation (FP) binding assay with fluorescein-tagged IκB peptide
Target sequence in this assay (P63208 whole entry partner, one chain of several): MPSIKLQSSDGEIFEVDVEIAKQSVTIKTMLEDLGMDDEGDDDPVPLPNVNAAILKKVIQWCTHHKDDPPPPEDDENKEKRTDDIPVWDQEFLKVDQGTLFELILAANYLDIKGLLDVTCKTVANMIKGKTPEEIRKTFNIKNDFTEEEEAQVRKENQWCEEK

[3] = Table 11, with spread, read-out: FP IC50/μM
[4] = Tables 1, 3, 7, 8, 10 nM fluorescein-tagged IκB peptide, read-out: FP Assay IC50/μM

Skp2, sequence (Q13309 whole entry, species assumed): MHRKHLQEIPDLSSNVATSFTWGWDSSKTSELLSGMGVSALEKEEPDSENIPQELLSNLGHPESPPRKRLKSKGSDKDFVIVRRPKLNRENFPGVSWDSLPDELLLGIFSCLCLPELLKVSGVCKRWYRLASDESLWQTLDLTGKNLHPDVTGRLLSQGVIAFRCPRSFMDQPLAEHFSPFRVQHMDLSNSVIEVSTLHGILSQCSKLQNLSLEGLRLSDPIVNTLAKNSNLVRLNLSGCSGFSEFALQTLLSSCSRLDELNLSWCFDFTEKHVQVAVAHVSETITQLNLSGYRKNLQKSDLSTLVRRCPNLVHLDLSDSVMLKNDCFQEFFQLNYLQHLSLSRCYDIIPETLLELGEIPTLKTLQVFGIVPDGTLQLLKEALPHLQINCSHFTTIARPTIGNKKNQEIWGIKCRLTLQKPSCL
Skp2, sequence (P63208 whole entry partner, species assumed): as the sequence (P63208 whole entry partner, one chain of several) above
Skp2, sequence (Q13616 whole entry partner, species assumed): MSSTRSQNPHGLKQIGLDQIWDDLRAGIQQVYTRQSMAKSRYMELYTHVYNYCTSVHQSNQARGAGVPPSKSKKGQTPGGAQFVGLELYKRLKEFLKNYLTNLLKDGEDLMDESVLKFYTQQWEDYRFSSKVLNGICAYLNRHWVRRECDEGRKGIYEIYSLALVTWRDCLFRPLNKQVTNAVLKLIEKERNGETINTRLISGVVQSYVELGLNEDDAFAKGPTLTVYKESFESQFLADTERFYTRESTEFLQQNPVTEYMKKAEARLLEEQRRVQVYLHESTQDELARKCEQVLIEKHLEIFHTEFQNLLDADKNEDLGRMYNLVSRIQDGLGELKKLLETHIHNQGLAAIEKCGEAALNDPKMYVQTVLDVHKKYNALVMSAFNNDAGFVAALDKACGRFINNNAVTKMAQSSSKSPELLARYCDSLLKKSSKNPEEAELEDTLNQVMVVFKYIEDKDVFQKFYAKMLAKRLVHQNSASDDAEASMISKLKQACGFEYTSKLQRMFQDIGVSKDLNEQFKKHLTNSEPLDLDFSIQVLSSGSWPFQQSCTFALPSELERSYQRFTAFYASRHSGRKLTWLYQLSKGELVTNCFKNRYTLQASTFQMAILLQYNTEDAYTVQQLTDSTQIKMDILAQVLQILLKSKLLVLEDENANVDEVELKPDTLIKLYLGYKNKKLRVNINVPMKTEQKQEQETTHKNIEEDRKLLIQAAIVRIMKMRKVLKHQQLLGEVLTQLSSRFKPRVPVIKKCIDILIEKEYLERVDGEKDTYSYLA
Skp2, sequence (P62877 whole entry partner, species assumed): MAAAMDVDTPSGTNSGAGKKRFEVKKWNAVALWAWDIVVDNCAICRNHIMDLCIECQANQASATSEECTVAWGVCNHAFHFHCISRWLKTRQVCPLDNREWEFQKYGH
β-TrCP1/Skp1, sequence (P63208 2-163 partner limits assumed, one chain of several): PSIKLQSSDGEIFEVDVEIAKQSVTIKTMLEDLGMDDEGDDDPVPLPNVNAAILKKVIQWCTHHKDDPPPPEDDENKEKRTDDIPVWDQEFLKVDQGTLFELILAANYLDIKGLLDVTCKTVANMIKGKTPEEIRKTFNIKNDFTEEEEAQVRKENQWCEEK
FBW7/Skp1, sequence (Q969H0 whole entry, species assumed): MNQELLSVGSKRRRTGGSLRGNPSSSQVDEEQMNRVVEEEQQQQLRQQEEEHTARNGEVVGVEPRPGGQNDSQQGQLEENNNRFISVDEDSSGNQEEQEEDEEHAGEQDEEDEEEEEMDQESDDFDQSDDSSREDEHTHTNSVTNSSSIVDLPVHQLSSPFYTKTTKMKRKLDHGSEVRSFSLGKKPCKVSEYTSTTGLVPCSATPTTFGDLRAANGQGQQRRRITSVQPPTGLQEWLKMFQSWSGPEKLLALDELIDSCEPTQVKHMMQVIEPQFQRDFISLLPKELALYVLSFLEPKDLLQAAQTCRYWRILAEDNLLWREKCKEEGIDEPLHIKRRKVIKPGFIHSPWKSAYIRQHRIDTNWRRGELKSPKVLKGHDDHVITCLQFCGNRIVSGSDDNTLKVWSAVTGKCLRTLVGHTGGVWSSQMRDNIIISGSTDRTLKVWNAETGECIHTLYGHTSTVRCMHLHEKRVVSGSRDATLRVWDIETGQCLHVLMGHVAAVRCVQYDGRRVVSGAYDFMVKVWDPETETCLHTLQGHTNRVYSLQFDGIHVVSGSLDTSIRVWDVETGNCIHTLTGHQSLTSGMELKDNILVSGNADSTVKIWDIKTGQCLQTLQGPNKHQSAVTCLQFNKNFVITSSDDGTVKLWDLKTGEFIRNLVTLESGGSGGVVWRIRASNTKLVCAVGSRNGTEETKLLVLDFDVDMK
FBW7/Skp1, sequence (P63208 whole entry partner, species assumed): as the sequence (P63208 whole entry partner, one chain of several) above
FBW7/Skp1, sequence (Q13616 whole entry partner, species assumed): as the sequence (Q13616 whole entry partner, species assumed) above
FBW7/Skp1, sequence (P62877 whole entry partner, species assumed): as the sequence (P62877 whole entry partner, species assumed) above

SMILES | inhibition at 100 µM (FBW7/Skp1; 100 μM, value in brackets) | inhibition at 10 µM (FBW7/Skp1) | Biotin Pulldown Assay 10 μM (βTrCP [1]) | Biotin Pulldown Assay 100 μM (βTrCP [1]) | Ub Assay 10 μM (β-TrCP1/Skp1) | Ub Assay 100 μM (β-TrCP1/Skp1) | inhibition at 100 µM (Skp2; 100 μM, value in brackets) | inhibition at 10 µM (Skp2) | IC50 (βTrCP [2]; [3]) | FP Assay IC50/μM (βTrCP [2]; Tables 1, 3, 7, 8, 10 nM fluorescein-tagged IκB peptide) | IC50 (βTrCP [2]; [4]) | inhibition at 100 µM (FBW7/Skp1) | inhibition at 100 µM (Skp2) | IC50 (βTrCP [2]; FP Assay IC50/μM, Tables 1, 3, 7, 8, 10 nM fluorescein-tagged IκB peptide) | IC50 (βTrCP [2]; FP IC50/μM, Table 11, with spread)
NC(=O)[C@H](CCC(=O)O)NC(=O)[C@H](Cc1ccccc1)NC(=O)[C@H](Cc1ccccc1)NC(=O)CNC(=O)[C@H](CCC(=O)O)NC(=O)CCC(=O)O [UBP002, Suc-EGFFE-NH2] (Suc-EGFFE-NH2) | 0% | 0% | no effect/ | reduces | reduces/ | inhibits | 0% | 14% | 3.18 ± 0.357 µM | low μM inhibitor |  |  |  |  | 
CC(=O)N[C@H](CC(=O)O)C(=O)N[C@@H](CCC(=O)O)C(=O)NCC(=O)N[C@@H](Cc1cccc(F)c1)C(=O)N[C@@H](Cc1cccc2ccccc12)C(=O)N[C@@H](CCC(=O)O)C(N)=O [UBP016, Ac-dEGF(3F)1NalE-NH2] (Ac-[dD]EG[Phe(3-F)][1Nal]E-NH2) | 8% | 3% | reduces/ | inhibits | reduces/ | inhibits | 7% | 0% | 0.112 ± 0.017 µM |  |  |  |  |  | 
CC(=O)N[C@H](CC(=O)O)C(=O)N[C@@H](CCC(=O)O)C(=O)NCC(=O)N[C@@H](Cc1cccc(F)c1)C(=O)N[C@@H](Cc1c[nH]c2ccccc12)C(=O)N[C@@H](CCC(=O)O)C(N)=O [UBP017, Ac-dEGF(3F)WE-NH2] (Ac-[dD]EG[Phe(3-F)]WE-NH2) | 0% | 3% | reduces/ | inhibits | reduces/ | inhibits | 27% | 10% | 0.102 ± 0.017 µM |  | 0.102 µM |  |  |  | 
NC(=O)[C@H](CCC(=O)O)NC(=O)[C@H](Cc1c[nH]c2ccccc12)NC(=O)[C@H](Cc1cccc(F)c1)NC(=O)CNC(=O)[C@H](CCC(=O)O)NC(=O)[C@@H](CC(=O)O)NC(=O)c1ccccc1 [UBP018, Bz-dEGF(3F)WE-NH2] (Bz-[dD]EG[Phe(3-F)]WE-NH2) |  | 0% | reduces/ | inhibits | reduces/ | inhibits |  | 0% |  |  |  | 5% | 0% | 0.173 µM | 0.173 ± 0.072 µM
CCC(=O)N[C@H](CC(=O)O)C(=O)N[C@@H](CCC(=O)O)C(=O)NCC(=O)N[C@@H](Cc1cccc(F)c1)C(=O)N[C@@H](Cc1c[nH]c2ccccc12)C(=O)N[C@@H](CCC(=O)O)C(N)=O [UBP019, Et(CO)-dEGF(3F)WE-NH2] (Propionyl-[dD]EG[Phe(3-F)]WE-NH2) | 10% | 0% | reduces/ | inhibits | reduces/ | inhibits | 10% | 1% | 0.145 ± 0.026 µM |  | 0.145 µM |  |  |  | 
COC(=O)N[C@H](CC(=O)O)C(=O)N[C@@H](CCC(=O)O)C(=O)NCC(=O)N[C@@H](Cc1cccc(F)c1)C(=O)N[C@@H](Cc1c[nH]c2ccccc12)C(=O)N[C@@H](CCC(=O)O)C(N)=O [UBP020, MeO(CO)-dEGF(3F)WE-NH2] (Moc-[dD]EG[Phe(3-F)]WE-NH2) | 8% | 6% | reduces/ | inhibits | inhibits/ | inhibits | 16% | 0% | 0.076 ± 0.014 µM |  |  |  |  |  | 
Cc1ccc(S(=O)(=O)N[C@H](CC(=O)O)C(=O)N[C@@H](CC(=O)O)C(=O)NCC(=O)N[C@@H](Cc2cccc(F)c2)C(=O)N[C@@H](Cc2c[nH]c3ccccc23)C(=O)N[C@@H](CCC(=O)O)C(N)=O)cc1 [UBP025, Ts-dDGF(3F)WE-NH2] (Tos-[dD]DG[Phe(3-F)]WE-NH2) | 8% | 1% | s. reduces/ | inhibits | inhibits/ | inhibits | 22% | 0% | 0.025 ± 0.004 µM |  | 0.025 µM |  |  |  | 
Cc1ccc(S(=O)(=O)N[C@H](CC(=O)O)C(=O)N[C@@H](CCC(=O)O)C(=O)NCC(=O)N[C@@H](Cc2cccc(F)c2)C(=O)N[C@@H](Cc2c[nH]c3ccccc23)C(=O)N[C@@H](CC(=O)O)C(N)=O)cc1 [UBP027, Ts-dEGF(3F)WD-NH2] (Tos-[dD]EG[Phe(3-F)]WD-NH2) | 8% | 3% | s. reduces/ | inhibits | inhibits/ | inhibits | 6% | 4% | 0.034 ± 0.005 µM |  | 0.034 µM |  |  |  | 
Cc1ccc(S(=O)(=O)N[C@H](CC(=O)O)C(=O)N[C@@H](CC(=O)O)C(=O)NCC(=O)N[C@@H](Cc2cccc(F)c2)C(=O)N[C@@H](Cc2c[nH]c3ccccc23)C(=O)N[C@@H](CC(=O)O)C(N)=O)cc1 [UBP028, Ts-dDGF(3F)WD-NH2] (Tos-[dD]DG[Phe(3-F)]WD-NH2) | 10% | 4% | reduces/ | inhibits | inhibits/ | inhibits | 14% | 0% | 0.081 ± 0.02 µM |  | 0.081 µM |  |  |  | 
COc1ccc(S(=O)(=O)N[C@H](CC(=O)O)C(=O)N[C@@H](CCC(=O)O)C(=O)NCC(=O)N[C@@H](Cc2cccc(F)c2)C(=O)N[C@@H](Cc2c[nH]c3ccccc23)C(=O)N[C@@H](CCC(=O)O)C(N)=O)cc1OC [UBP029, 3,4-(MeO)2-PhSO2-dEGF(3F)WE-NH2] (X2-[dD]EG[Phe(3-F)]WE-NH2) | 0% | 2% | reduces/ | inhibits | reduces/ | inhibits | 19% | 19% | 0.042 ± 0.001 µM |  |  |  |  |  | 
Cc1ccc(S(=O)(=O)N[C@H](CC(=O)O)C(=O)N[C@@H](CCC(=O)O)C(=O)NCC(=O)N[C@@H](Cc2cccc(F)c2)C(=O)N[C@@H](Cc2c[nH]c3ccccc23)C(=O)N(C)[C@@H](CCC(=O)O)C(N)=O)cc1 [UBP032, Ts-dEGF(3F)WE(Me)-NH2] (Tos-[dD]EG[Phe(3-F)]W[NMeE]-NH2) | 10% | 4% |  | inhibits |  | inhibits | 0% | 0% |  |  |  |  |  |  | 
